Results reported in ChEMBL document CHEMBL1212936, “Discovery of 2-[1-(4-chlorophenyl)cyclopropyl]-3-hydroxy-8-(trifluoromethyl)quinoline-4-carboxylic acid (PSI-421), a P-selectin inhibitor with improved pharmacokinetic properties and oral efficacy in models of vascular injury” (J Med Chem, 2010).
≈ marks a conversion by molar mass, not a printed value.

Columns and labels:
[1] = Physiological stability of the compound in simulated intestinal bile salts-lecithin mixture fluid assessed as compound remaining after 12 hrs in presence of 20% acetonitrile; assay type: physicochemical; details: read-out: Stability
[2] = Physiological stability of the compound in simulated intestinal bile salts-lecithin mixture fluid assessed as compound remaining after 8 hrs in presence of 20% acetonitrile; assay type: physicochemical; details: read-out: Stability
[3] = Physiological stability of the compound in simulated intestinal bile salts-lecithin mixture fluid assessed as compound remaining after 16 hrs in presence of 20% acetonitrile; assay type: physicochemical; details: read-out: Stability
[4] = Physiological stability of the compound at pH 9 assessed as compound remaining after 12 hrs in presence of 20% acetonitrile; assay type: physicochemical; details: read-out: Stability
[5] = Physiological stability of the compound at pH 4.5 assessed as compound remaining after 16 hrs in presence of 20% acetonitrile; assay type: physicochemical; details: read-out: Stability
Plasma [6] = assay: Drug level in Sprague-Dawley rat plasma at 30 mg/kg, po; assay type: ADME, organism-based; set-up: dose 30 mg/kg, route oral; details: in vivo
[7] = Clearance in C57B6 mouse at 2 mg/kg, iv and 10 mg/kg, po; assay type: ADME, organism-based; details: in vivo
[8] = biological target: Voltage-gated inwardly rectifying potassium channel KCNH2 (Homo sapiens, UniProt Q12809); assay: Inhibition of human ERG
Sequence of Voltage-gated inwardly rectifying potassium channel KCNH2 (Q12809 whole entry): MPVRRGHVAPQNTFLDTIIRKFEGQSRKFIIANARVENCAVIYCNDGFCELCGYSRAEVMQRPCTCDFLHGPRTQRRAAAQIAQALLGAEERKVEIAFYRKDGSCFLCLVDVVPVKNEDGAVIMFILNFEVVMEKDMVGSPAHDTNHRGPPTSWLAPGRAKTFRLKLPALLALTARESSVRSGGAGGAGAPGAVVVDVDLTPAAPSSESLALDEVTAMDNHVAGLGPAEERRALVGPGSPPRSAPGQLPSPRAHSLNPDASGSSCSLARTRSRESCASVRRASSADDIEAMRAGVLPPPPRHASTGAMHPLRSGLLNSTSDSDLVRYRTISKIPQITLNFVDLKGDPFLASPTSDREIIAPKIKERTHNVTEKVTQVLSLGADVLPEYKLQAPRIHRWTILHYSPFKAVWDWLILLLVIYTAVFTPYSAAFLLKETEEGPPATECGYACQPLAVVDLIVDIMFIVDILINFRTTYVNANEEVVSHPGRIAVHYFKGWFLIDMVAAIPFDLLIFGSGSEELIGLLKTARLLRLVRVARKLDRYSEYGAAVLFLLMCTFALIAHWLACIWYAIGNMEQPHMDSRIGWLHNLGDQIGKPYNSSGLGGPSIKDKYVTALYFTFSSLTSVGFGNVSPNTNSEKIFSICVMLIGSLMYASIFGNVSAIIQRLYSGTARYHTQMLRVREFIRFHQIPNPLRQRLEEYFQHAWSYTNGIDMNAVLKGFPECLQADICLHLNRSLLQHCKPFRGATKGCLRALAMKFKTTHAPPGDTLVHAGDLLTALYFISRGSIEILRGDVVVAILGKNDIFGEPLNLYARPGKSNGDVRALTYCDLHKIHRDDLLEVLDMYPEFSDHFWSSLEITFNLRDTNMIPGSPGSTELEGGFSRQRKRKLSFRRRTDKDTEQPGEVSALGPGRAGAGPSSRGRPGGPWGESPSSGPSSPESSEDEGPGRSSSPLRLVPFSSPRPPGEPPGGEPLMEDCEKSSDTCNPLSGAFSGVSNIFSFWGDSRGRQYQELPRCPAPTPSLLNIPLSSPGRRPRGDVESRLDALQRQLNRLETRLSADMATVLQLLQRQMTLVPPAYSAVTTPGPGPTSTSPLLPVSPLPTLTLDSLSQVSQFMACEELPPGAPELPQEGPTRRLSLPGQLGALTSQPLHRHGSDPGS

[9] = Aqueous solubility of the compound at pH 9; assay type: physicochemical; details: aqueous solution, read-out: solubility
[10] = Half life in Sprague-Dawley rat liver microsomes; assay type: ADME, Microsome
[11] = Physiological stability of the compound in simulated intestinal bile salts-lecithin mixture fluid assessed as compound remaining after 24 hrs in presence of 20% acetonitrile; assay type: physicochemical; details: read-out: Stability
[12] = Half life in human liver microsomes; assay type: ADME, Microsome
[13] = Genotoxicity in Salmonella Typhimurium by Ames test; assay type: toxicity; details: salmonella enterica subsp. enterica serovar typhimurium
[14] = Half life in C57B6 mouse liver microsomes; assay type: ADME, Microsome
Canis familiaris = assay: Dose normalized AUC in Beagle dog measured per mg of plasma at 2 mg/kg, iv and 10 mg/kg, po; assay type: ADME, organism-based, Canis lupus familiaris; details: in vivo
Rattus norvegicus [15] = assay: Inhibition of leukocytes rolling flux in acute intravital microscopy model of Sprague-Dawley rat cremasteric postcapillary venules at 15 mg/kg, po after 35 mins relative to control; assay type: functional
[16] = Physiological stability of the compound in simulated intestinal fluid assessed as compound remaining after 4 hrs in presence of 20% acetonitrile; assay type: physicochemical; details: read-out: Stability
[17] = Physiological stability of the compound in simulated intestinal fluid assessed as compound remaining after 20 hrs in presence of 20% acetonitrile; assay type: physicochemical; details: read-out: Stability
[18] = Physiological stability of the compound at pH 6.6 assessed as compound remaining after 24 hrs in presence of 20% acetonitrile; assay type: physicochemical; details: read-out: Stability
[19] = Physiological stability of the compound at pH 9 assessed as compound remaining after 20 hrs in presence of 20% acetonitrile; assay type: physicochemical; details: read-out: Stability
[20] = Oral bioavailability in C57B6 mouse at 10 mg/kg; assay type: ADME, organism-based; details: in vivo
Papio anubis = assay: Toxicity in Baboon deep vein thrombosis model assessed as induction of coagulation at 1 mg/kg, po; assay type: organism-based; set-up: dose 1 mg/kg, route oral; details: in vivo
Cynomolgus monkey = assay: Dose normalized AUC in cynomolgus monkey measured per mg of plasma at 5 mg/kg, iv and po; assay type: ADME, organism-based, Macaca fascicularis; set-up: dose 5 mg/kg, route oral; details: in vivo
[21] = Solubility of the compound in fed simulated intestinal bile salts-lecithin mixture fluid at pH 5.5; assay type: physicochemical
Mus musculus [22] = assay: Dose normalized AUC in C57B6 mouse measured per mg of plasma at 2 mg/kg, iv and 10 mg/kg, po; assay type: ADME, organism-based; details: in vivo
[23] = Physiological stability of the compound at pH 6.6 assessed as compound remaining after 16 hrs in presence of 20% acetonitrile; assay type: physicochemical; details: read-out: Stability
[24] = Physiological stability of the compound at pH 7.4 assessed as compound remaining after 12 hrs in presence of 20% acetonitrile; assay type: physicochemical; details: read-out: Stability
[25] = Physiological stability of the compound in simulated intestinal bile salts-lecithin mixture fluid assessed as compound remaining after 4 hrs in presence of 20% acetonitrile; assay type: physicochemical; details: read-out: Stability
[26] = Physiological stability of the compound at pH 6.6 assessed as compound remaining after 20 hrs in presence of 20% acetonitrile; assay type: physicochemical; details: read-out: Stability
[27] = Aqueous solubility of the compound at pH 7.4; assay type: physicochemical; details: aqueous solution, read-out: solubility
[28] = Physiological stability of the compound at pH 4.5 assessed as compound remaining after 12 hrs in presence of 20% acetonitrile; assay type: physicochemical; details: read-out: Stability
[29] = Physiological stability of the compound in simulated intestinal fluid assessed as compound remaining after 24 hrs in presence of 20% acetonitrile; assay type: physicochemical; details: read-out: Stability
[30] = Clearance in Beagle dog at 2 mg/kg, iv and 10 mg/kg, po; assay type: ADME, organism-based, Canis lupus familiaris; details: in vivo
Plasma [31] = assay: Drug level in Sprague-Dawley rat plasma at 7.5 mg/kg, po; assay type: ADME, organism-based; set-up: dose 7.5 mg/kg, route oral; details: in vivo
[32] = Physiological stability of the compound at pH 7.4 assessed as compound remaining after 24 hrs in presence of 20% acetonitrile; assay type: physicochemical; details: read-out: Stability
[33] = Aqueous solubility of the compound at pH 6.6; assay type: physicochemical; details: aqueous solution
[34] = Physiological stability of the compound in simulated intestinal fluid assessed as compound remaining after 16 hrs in presence of 20% acetonitrile; assay type: physicochemical; details: read-out: Stability
[35] = Physiological stability of the compound at pH 1 assessed as compound remaining after 16 hrs in presence of 20% acetonitrile; assay type: physicochemical; details: read-out: Stability
[36] = biological target: T1, P-selectin glycoprotein ligand 1 (Homo sapiens) (UniProt Q14242); assay: Binding affinity to recombinant PSGL-1 assessed as saturation transfer difference at 100 uM by NMR analysis
T1 sequence (whole entry): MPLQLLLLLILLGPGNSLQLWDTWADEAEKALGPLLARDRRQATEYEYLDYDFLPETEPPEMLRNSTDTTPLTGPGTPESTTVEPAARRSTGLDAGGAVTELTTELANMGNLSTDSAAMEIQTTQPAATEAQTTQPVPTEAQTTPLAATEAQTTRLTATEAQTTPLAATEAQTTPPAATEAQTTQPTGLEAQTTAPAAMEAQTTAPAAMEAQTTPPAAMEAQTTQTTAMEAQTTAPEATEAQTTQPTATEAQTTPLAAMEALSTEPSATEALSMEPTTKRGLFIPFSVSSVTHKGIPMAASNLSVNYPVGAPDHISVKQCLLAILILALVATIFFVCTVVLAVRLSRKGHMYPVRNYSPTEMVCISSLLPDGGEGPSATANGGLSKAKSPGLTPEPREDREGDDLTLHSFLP

[37] = Physiological stability of the compound at pH 9 assessed as compound remaining after 4 hrs in presence of 20% acetonitrile; assay type: physicochemical; details: read-out: Stability
[38] = Physiological stability of the compound at pH 6.6 assessed as compound remaining after 4 hrs in presence of 20% acetonitrile; assay type: physicochemical; details: read-out: Stability
[39] = Oral bioavailability in cynomolgus monkey at 5 mg/kg; assay type: ADME, organism-based, Macaca fascicularis; details: in vivo
Mus musculus [40] = assay: Reduction of leukocytes rolling flux in acute intravital microscopy model of C57B6 mouse cremasteric postcapillary venules at 50 mg/kg, po after 35 mins relative to control; assay type: functional; set-up: scale not given: the % may be the effect or the level left
[41] = Permeability from basolateral to apical side in human Caco-2 cells; assay type: ADME, cell-based
[42] = Physiological stability of the compound at pH 7.4 assessed as compound remaining after 8 hrs in presence of 20% acetonitrile; assay type: physicochemical; details: read-out: Stability
Rattus norvegicus [43] = assay: Inhibition of leukocytes rolling flux in acute intravital microscopy Sprague-Dawley rat model at 30 mg/kg, po after 35 mins relative to control; assay type: functional

remaining at 12 h [1]: 101%
remaining at 8 h [2]: 101%
remaining at 16 h [3]: 102%
remaining at 12 h [4]: 98.8%
remaining at 16 h [5]: 101%
Cp (Plasma [6]): 38000 ng/mL
clearance [7]: 7 mL/min/kg
solubility [9]: 1070 µg/mL (≈ 2630 µM)
half-life [10]: > 1 h
remaining at 24 h [11]: 103%
half-life [12]: > 1 h
half-life [14]: > 1 h
AUC (Canis familiaris): 28862 ng·h/mL
remaining at 4 h [16]: 101%
remaining at 20 h [17]: 99.4%
remaining at 24 h [18]: 104%
remaining at 20 h [19]: 101%
bioavailability [20]: 67%
AUC (Cynomolgus monkey): 84620 ng·h/mL
solubility [21]: 835 µg/mL
AUC (Mus musculus [22]): 1505 ng·h/mL
remaining at 16 h [23]: 103%
remaining at 12 h [24]: 102%
remaining at 4 h [25]: 102%
remaining at 20 h [26]: 102%
solubility [27]: 165 µg/mL (≈ 405 µM)
remaining at 12 h [28]: 99.2%
remaining at 24 h [29]: 95%
clearance [30]: 0.9 mL/min/kg
Cp (Plasma [31]): 6000 ng/mL
remaining at 24 h [32]: 103%
solubility [33]: 920 µg/mL (≈ 2260 µM)
remaining at 16 h [34]: 101%
remaining at 16 h [35]: 102%
Activity [36]: 9%
remaining at 4 h [37]: 98.5%
remaining at 4 h [38]: 102%
bioavailability [39]: 96%
Papp B→A [41]: 9.8 ×10⁻⁶ cm/s
remaining at 8 h [42]: 102%
SMILES: O=C(O)c1c(O)c(C2(c3ccc(Cl)cc3)CC2)nc2c(C(F)(F)F)cccc12
inhibition (INH) [8]: Not Active
Activity [13]: Non-toxic
inhibition in vivo at 15 mg/kg (Rattus norvegicus [15]): 51%
Activity (Papio anubis): Non-toxic
Activity (Mus musculus [40]): 69%
inhibition in vivo at 30 mg/kg (Rattus norvegicus [43]): 61%
